Patent US20130310332A1, “MAPLE TREE-DERIVED PRODUCTS AND USES THEREOF” (UNIVERSITY OF RHODE ISLAND, priority 2010, published 2013)
Where two headings read alike, the source gives them in different places.

Tests used:
[1] = DPPH radical scavenging (antioxidant) assay; settings: compounds from red maple stems
Method: The DPPH radical scavenging activity of ascorbic acid (vitamin C) and the synthetic commercial antioxidant, butylated hydroxytoluene (BHT), are also assayed as positive controls.
The DPPH radical scavenging activity of ascorbic acid (vitamin C) and the synthetic commercial antioxidant, butylated hydroxytoluene (BHT), are also assayed as positive controls. […] Absorbance is read after 30 min at 515 nm, and the scavenging capacity (SC) is calculated as SC %=(A0−A1/A0)×100, where A0 is the absorbance of the reagent blank and A1 is the absorbance of test samples. All tests are performed in triplicate.

HCT-116 cells = assay: MTS antiproliferative assay, HCT-116; assay type: cell-based; settings: Homo sapiens
Method: (§1) The extracts are solubilized in DMSO and normalized based on their phenolic content to evaluate their antiproliferative activities against the colon cell lines. […] Caco-2 cells are grown in EMEM medium supplemented with 10% v/v fetal bovine serum, 1% v/v nonessential amino acids, 1% v/v L-glutamine and 1% v/v antibiotic solution (Sigma). HT-29 and HCT-116 cells are grown in McCoy's 5a medium supplemented with 10% v/v fetal bovine serum, 1% v/v nonessential amino acids, 2% v/v HEPES and 1% v/v antibiotic solution. CCD-18Co cells are grown in EMEM medium supplemented with 10% v/v fetal bovine serum, 1% v/v nonessential amino acids, 1% v/v L-glutamine and 1% v/v antibiotic solution and are used from PDL between 26 to 35 for all experiments. […] The pH of the culture medium is determined using pH indicator paper (pHydrion™ Brilliant, pH 5.5-9.0, Micro Essential Laboratory, NY, USA) inside the incubator. Cells are counted using a hemacytometer and are plated at 3,000-5,000 cells per well, in a 96-well format for 24 or 48 h prior to sample treatment depending on the cell line. […] Control cells are also run in parallel and subjected to the same changes in medium with 0.5% DMSO.
(§2) At the end of 48 or 72 h of treatment with serially diluted test samples, 20 μl of the MTS reagent, in combination with the electron coupling agent, phenazine methosulfate, is added to the wells and cells are incubated at 37° C. in a humidified incubator for 3 h. Absorbance at 490 nm (OD490) is monitored with a spectrophotometer (SpectraMax M2, Molecular Devices Corp., operated by SoftmaxPro v.4.6 software, Sunnyvale, Calif., USA), to obtain the number of cells relative to control populations. 20 μl of etoposide 4 mg/ml (Sigma) is assayed as a negative control of proliferation. […] Data are presented as the mean±S.D. of three separated experiments on each cell line.

Caco-2 cells = assay: MTS antiproliferative assay, Caco-2; assay type: cell-based; settings: Homo sapiens
Method: The extracts are solubilized in DMSO and normalized based on their phenolic content to evaluate their antiproliferative activities against the colon cell lines. […] CCD-18Co cells are grown in EMEM medium supplemented with 10% v/v fetal bovine serum, 1% v/v nonessential amino acids, 1% v/v L-glutamine and 1% v/v antibiotic solution and are used from PDL between 26 to 35 for all experiments. […] The pH of the culture medium is determined using pH indicator paper (pHydrion™ Brilliant, pH 5.5-9.0, Micro Essential Laboratory, NY, USA) inside the incubator. […] Control cells are also run in parallel and subjected to the same changes in medium with 0.5% DMSO. […] At the end of 48 or 72 h of treatment with serially diluted test samples, 20 μl of the MTS reagent, in combination with the electron coupling agent, phenazine methosulfate, is added to the wells and cells are incubated at 37° C. in a humidified incubator for 3 h. […] Data are presented as the mean±S.D. of three separated experiments on each cell line.

CCD-18Co cells = assay: MTS antiproliferative assay, normal colon CCD-18Co; assay type: cell-based; settings: Homo sapiens
Method: as §1, §2

HT-29 cells = assay: MTS antiproliferative assay, HT-29; assay type: cell-based; settings: Homo sapiens
Method: as §1, §2

α-glucosidase = α-glucosidase (Saccharomyces cerevisiae, UniProt P53341); assay: α-Glucosidase inhibition, red maple stem compounds (Example 4); assay type: biochemical; settings: for α-glucosidase inhibitory activity (in words): by number of galloyl groups
[2] = HCT-116, read-out: IC50 HCT-116 48 h, ginnalins, 48 h treatment
[3] = HCT-116, ginnalins, 72 h treatment, read-out: IC50 HCT-116 72 h
[4] = Caco-2, read-out: IC50 Caco-2 48 h, ginnalins, 48 h treatment
[5] = Caco-2, ginnalins, 72 h treatment, read-out: IC50 Caco-2 72 h
[6] = ginnalins, 72 h treatment, normal colon cells, read-out: IC50 CCD-18Co 72 h
[7] = HT-29, read-out: IC50 HT-29 48 h, ginnalins, 48 h treatment
[8] = HT-29, ginnalins, 72 h treatment, read-out: IC50 HT-29 72 h

Chain of α-glucosidase (P53341 whole entry): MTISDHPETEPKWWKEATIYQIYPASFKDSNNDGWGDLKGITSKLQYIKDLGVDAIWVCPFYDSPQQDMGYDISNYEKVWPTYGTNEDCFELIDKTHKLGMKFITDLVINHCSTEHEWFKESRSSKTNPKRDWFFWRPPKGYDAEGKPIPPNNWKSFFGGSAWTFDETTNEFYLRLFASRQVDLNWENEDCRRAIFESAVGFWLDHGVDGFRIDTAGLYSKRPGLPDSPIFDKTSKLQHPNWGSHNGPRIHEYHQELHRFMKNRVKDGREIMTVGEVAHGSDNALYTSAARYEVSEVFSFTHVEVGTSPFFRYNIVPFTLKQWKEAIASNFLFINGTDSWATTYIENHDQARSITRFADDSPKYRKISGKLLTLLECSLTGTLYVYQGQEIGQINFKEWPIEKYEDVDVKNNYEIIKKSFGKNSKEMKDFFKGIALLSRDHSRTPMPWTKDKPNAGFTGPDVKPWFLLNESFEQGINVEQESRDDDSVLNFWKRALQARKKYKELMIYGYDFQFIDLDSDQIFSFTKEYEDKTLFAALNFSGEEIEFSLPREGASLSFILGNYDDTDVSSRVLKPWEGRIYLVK

Compound | IC50 [1] | α-glucosidase inhibitory activity (in words) (α-glucosidase) | inhibitors of α-glucosidase enzyme, concentration dependence (α-glucosidase) | other results
Cc1cc(C(C)(C)C)c(O)c(C(C)(C)C)c1 [BHT, butylated hydroxytoluene, reference compound] | 1634 ± 16.1 µM | – | – | –
COc1cc([C@@H]2c3cc4c(cc3[C@@H](O[C@@H]3O[C@@H]5CO[C@@H](C)O[C@H]5[C@H](O)[C@H]3O)[C@H]3COC(=O)[C@H]23)OCO4)cc(OC)c1O [Etoposide, reference compound] | – | – | – | IC50 (HCT-116 cells; HCT-116, MTS assay control, read-out: IC50 HCT116 (control of proliferation)): 10 to 20 µM; IC50 (Caco-2 cells; Caco-2, MTS assay control, read-out: IC50 Caco-2 (control of proliferation)): 10 to 20 µM; IC50 (CCD-18Co cells; MTS assay control, read-out: IC50 CCD-18Co (control of proliferation)): 30 to 40 µM; IC50 (HT-29 cells; HT-29, MTS assay control, read-out: IC50 HT29 (control of proliferation)): 10 to 20 µM
O=C(O[C@H]1[C@H](O)[C@@H](OC(=O)c2cc(O)c(O)c(O)c2)CO[C@@H]1CO)c1cc(O)c(O)c(O)c1 [RMS 7, 2,4-di-O-galloyl-1,5-anhydro-D-glucitol] | 18.6 ± 0.77 µM | moderate α-glucosidase inhibitory activity | inhibitors of α-glucosidase enzyme in a concentration-dependent manner | –
O=C(O[C@H]1[C@H](O)[C@@H](CO)OC[C@@H]1OC(=O)c1cc(O)c(O)c(O)c1)c1cc(O)c(O)c(O)c1 [RMS 9, 2,3-di-O-galloyl-1,5-anhydro-D-glucitol] | 18.8 ± 0.77 µM | moderate α-glucosidase inhibitory activity | inhibitors of α-glucosidase enzyme in a concentration-dependent manner | –
O=C(OC[C@H]1OC[C@H](O)[C@@H](OC(=O)c2cc(O)c(O)c(O)c2)[C@@H]1O)c1cc(O)c(O)c(O)c1 [RMS 18, 3,6-di-O-galloyl-1,5-anhydro-D-glucitol] | 18.5 ± 0.44 µM | moderate α-glucosidase inhibitory activity | inhibitors of α-glucosidase enzyme in a concentration-dependent manner | –
O=C(OC[C@H]1OC[C@H](OC(=O)c2cc(O)c(O)c(O)c2)[C@@H](O)[C@@H]1OC(=O)c1cc(O)c(O)c(O)c1)c1cc(O)c(O)c(O)c1 [RMS 24, 2,4,6-tri-O-galloyl-1,5-anhydro-D-glucitol] | 13.1 µM | powerful α-glucosidase inhibitory activity | inhibitors of α-glucosidase enzyme in a concentration-dependent manner | –
O=C1O[C@H]([C@@H](O)CO)C(O)=C1O [Vitamin C, ascorbic acid, reference compound] | 71 ± 1.61 µM | – | – | –

Further lines, with some results ahead:

IC50 [1] | Compound | α-glucosidase inhibitory activity (in words) (α-glucosidase) | inhibitors of α-glucosidase enzyme, concentration dependence (α-glucosidase) | other results
48 ± 1.11 µM | O=C(O[C@H]1[C@H](O)[C@@H](CO)OC[C@@H]1O)c1cc(O)c(O)c(O)c1 [RMS 4, 3-O-galloyl-1,5-anhydro-D-glucitol] | do not show any activity | – | –
45.6 ± 1.45 µM | O=C(O[C@H]1[C@H](O)[C@@H](O)CO[C@@H]1CO)c1cc(O)c(O)c(O)c1 [RMS 5, 4-O-galloyl-1,5-anhydro-D-glucitol] | do not show any activity | – | –
32.7 ± 0.48 µM | O=C(OC[C@H]1OC[C@H](O)[C@@H](O)[C@@H]1O)c1cc(O)c(O)c(O)c1 [RMS 12, 6-O-galloyl-1,5-anhydro-D-glucitol] | do not show any activity | – | IC50 (HCT-116 cells; [2]): 25.1 ± 1.8 µg/mL; IC50 (HCT-116 cells; [3]): 20 ± 2 µg/mL; IC50 (Caco-2 cells; [4]): 31.1 ± 1.9 µg/mL; IC50 (Caco-2 cells; [5]): 22.6 ± 1.9 µg/mL; IC50 (CCD-18Co cells; [6]): 47.1 ± 5.3 µg/mL; IC50 (HT-29 cells; [7]): 36.2 ± 1.5 µg/mL; IC50 (HT-29 cells; [8]): 27.3 ± 0.6 µg/mL
20.4 ± 0.34 µM | O=C(O)c1cc(O)c(O)c(O)c1 [RMS 14, gallic acid] | – | – | –
991 ± 80.6 µM | COC(=O)c1cc(OC)c(O)c(OC)c1 [RMS 15, Methyl 3,5-dimethoxy-4-hydroxybenzoate] | – | – | –
16.5 ± 0.26 µM | COC(=O)c1cc(O)c(O)c(O)c1 [RMS 17, Methyl gallate] | – | inhibitors of α-glucosidase enzyme in a concentration-dependent manner | –
17.7 ± 0.21 µM | O=C(OC[C@H]1OC[C@H](OC(=O)c2cc(O)c(O)c(O)c2)[C@@H](O)[C@@H]1O)c1cc(O)c(O)c(O)c1 [RMS 26, 2,6-di-O-galloyl-1,5-anhydro-D-glucitol] | moderate α-glucosidase inhibitory activity | inhibitors of α-glucosidase enzyme in a concentration-dependent manner | IC50 (HCT-116 cells; [2]): 21.5 ± 1.6 µg/mL; IC50 (HCT-116 cells; [3]): 16.3 ± 2.1 µg/mL; IC50 (Caco-2 cells; [4]): 28.8 ± 1.8 µg/mL; IC50 (Caco-2 cells; [5]): 21.7 ± 1 µg/mL; IC50 (CCD-18Co cells; [6]): 46.6 ± 3.6 µg/mL; IC50 (HT-29 cells; [7]): 31 ± 2.6 µg/mL; IC50 (HT-29 cells; [8]): 24.1 ± 1.3 µg/mL
30.5 ± 0.8 µM | O=C(O[C@H]1CO[C@H](CO)[C@@H](O)[C@@H]1O)c1cc(O)c(O)c(O)c1 [RMS 27, 2-O-galloyl-1,5-anhydro-D-glucitol] | do not show any activity | – | IC50 (HCT-116 cells; [2]): 27 ± 1.9 µg/mL; IC50 (HCT-116 cells; [3]): 22.3 ± 2.4 µg/mL; IC50 (Caco-2 cells; [4]): 35 ± 1.4 µg/mL; IC50 (Caco-2 cells; [5]): 29.8 ± 1.2 µg/mL; IC50 (HT-29 cells; [7]): 33.8 ± 2 µg/mL; IC50 (HT-29 cells; [8]): 30.1 ± 1.3 µg/mL
116 ± 4.98 µM | COC(=O)c1cc(O)c(O)c(OC)c1 [RMS 28, 3,4-dihydroxy-5-methoxybenzoic acid methyl ester] | – | – | –
